Data from patent US9458154B2, “Kinase inhibitors” (Chiesi Farmaceutici S.p.A., priority 2011, dated 2016).

What follows are molecules tested against T1, p38alpha (Homo sapiens, UniProt Q16539) (assay: P38alpha Enzyme Inhibition Assay (Alphascreen kinase activity assay)). Settings: 100 pM p38alpha, ATF-2 fusion protein substrate, 250 μM ATP, 2 hours preincubation at 25° C.; read-out: p38α inhibition.
T1 construct: purchased Invitrogen PV3304
Type: biochemical
Method: P38alpha Enzyme Inhibition Assay
The inhibitory activity of compounds was determined using an Alphascreen® (Perkin Elmer) based kinase activity assay. Kinase reactions consisted of 25 mM HEPES pH 7.5, 10 mM MgCl2, 100 μM Na3VO4, 2 mM DTT, 0.05 mg/ml Tween 20, 100 pM p38alpha (Invitrogen, PV3304), 1% DMSO and 0.3 μg/ml ATF-2 fusion protein (New England Biolabs, 9224). Compounds were incubated under these conditions for 2 hours, at 25° C., prior to the initiation of the kinase activity by the addition of the 250 μM ATP. Reaction volumes were 20 uL. After 1 hr at 25° C. reactions were stopped by the adding 10 uL of 25 mM HEPES pH 7.5 containing 62.5 mM EDTA, 0.05% Triton X-100, 10% BSA and 0.83 ng/uL anti-phospho-ATF2 antibody (Abcam, ab28812). Detection was performed by measuring luminescence following the addition of Alphascreen Donor beads (Perkin Elmer 6765300) and Protein A Alphascreen Acceptor beads (Perkin Elmer 6760137), both at a final concentration of 20 ug/ml. IC50 values were determined from concentration-response curves.

T1 sequence (Q16539 whole entry, the tested form may be a part): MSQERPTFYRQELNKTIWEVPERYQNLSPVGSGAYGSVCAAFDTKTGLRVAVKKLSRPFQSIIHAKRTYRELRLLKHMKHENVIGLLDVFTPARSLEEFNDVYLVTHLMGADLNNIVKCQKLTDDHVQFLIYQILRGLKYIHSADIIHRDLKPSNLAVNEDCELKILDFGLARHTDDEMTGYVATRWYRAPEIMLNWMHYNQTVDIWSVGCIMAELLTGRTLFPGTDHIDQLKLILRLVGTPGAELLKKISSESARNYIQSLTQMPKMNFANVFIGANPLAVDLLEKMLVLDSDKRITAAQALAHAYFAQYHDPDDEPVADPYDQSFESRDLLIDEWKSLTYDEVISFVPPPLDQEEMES

IC50, < 10 nM:
Cc1ccc(-n2nc(C(C)(C)C)cc2NC(=O)N[C@H]2CC[C@@H](Oc3ccc4nnc(C5CCCCC5)n4c3)c3ccccc32)cc1 [Example 26, 1-(5-tert-Butyl-2-p-tolyl-2H-pyrazol-3-yl)-3-[(1S,4R)-4-(3-cyclohexyl-[1,2,4]triazolo[4,3-a]pyridin-6-yloxy)-1,2,3,4-tetrahydro-naphthalen-1-yl]-urea]
CC(C)c1nnc2ccc(O[C@H]3CC[C@H](NC(=O)Nc4cc(C(C)(C)C)nn4-c4ccc(Cl)c(O)c4)c4ccccc43)cn12 [Example 27, 1-[5-tert-Butyl-2-(4-chloro-3-hydroxy-phenyl)-2H-pyrazol-3-yl]-3-[(1S,4S)-4-(3-isopropyl-[1,2,4]triazolo[4,3-a]pyridin-6-yloxy)-1,2,3,4-tetrahydro-naphthalen-1-yl]-urea]
COc1c(NC(=O)N[C@H]2CC[C@@H](Oc3ccc4nnc(C(C)C)n4c3)c3ccccc32)cc(C(C)(C)C)cc1NS(C)(=O)=O [Example 28, N-(5-tert-Butyl-3-{3-[(1S,4R)-4-(3-isopropyl-[1,2,4]triazolo[4,3-a]pyridin-6-yloxy)-1,2,3,4-tetrahydro-naphthalen-1-yl]-ureido}-2-methoxy-phenyl)-methanesulfonamide]
CC(C)c1nnc2ccc(O[C@@H]3CC[C@H](NC(=O)Nc4cc(F)cc(N5CCOCC5)c4)c4ccccc43)cn12 [Example 29, 1-(3-Fluoro-5-morpholin-4-yl-phenyl)-3-[(1S,4R)-4-(3-isopropyl-[1,2,4]triazolo[4,3-a]pyridin-6-yloxy)-1,2,3,4-tetrahydro-naphthalen-1-yl]-urea]
CC(C)c1nnc2ccc(O[C@H]3CC[C@H](NC(=O)Nc4cc(F)cc(N5CCOCC5)c4)c4ccccc43)cn12 [Example 30, 1-(3-Fluoro-5-morpholin-4-yl-phenyl)-3-[(1S,4S)-4-(3-isopropyl-[1,2,4]triazolo[4,3-a]pyridin-6-yloxy)-1,2,3,4-tetrahydro-naphthalen-1-yl]-urea]
CC(C)c1nnc2ccc(O[C@@H]3CC[C@H](NC(=O)Nc4cc(C(C)(C)C)nn4-c4ccc(F)c(CN5CCOCC5)c4)c4ccccc43)cn12 [Example 31, 1-{5-tert-Butyl-2-(4-fluoro-3-morpholin-4-ylmethyl-phenyl)-2H-pyrazol-3-yl}-3-[(1S,4R)-4-(3-isopropyl-[1,2,4]triazolo[4,3-a]pyridin-6-yloxy)-1,2,3,4-tetrahydro-naphthalen-1-yl]-urea]
